Results: ChEMBL document CHEMBL4627399, “Synthesis and Structure-Activity Relationships of 5'-Aryl-14-alkoxypyridomorphinans: Identification of a μ Opioid Receptor Agonist/δ Opioid Receptor Antagonist Ligand with Systemic Antinociceptive Activity and Diminished Opioid Side Effects” (J Med Chem, 2020)
Activity calls are given as the source filed them. No cut-off for these calls is given here.

Columns and labels:
Mu-type opioid receptor [1] = molecular target: T1, Mu-type opioid receptor (Homo sapiens, UniProt P35372); assay: biochemical; format: cell-based, CHO
[2] = molecular target: T2, Delta-type opioid receptor (Homo sapiens, UniProt P41143); assay: Displacement of [3H]-diprenorphine from human delta opioid receptor expressed in CHO cell membranes incubated for 1 hr by competition radioligand binding assay
[3] = molecular target: T3, Kappa-type opioid receptor (Homo sapiens, UniProt P41145); assay: Displacement of [3H]-diprenorphine from human kappa opioid receptor expressed in CHO cell membranes incubated for 1 hr by competition radioligand binding assay
[4] = molecular target: T2, Delta-type opioid receptor; assay: Antagonist activity at human delta opioid receptor expressed in CHO cell membranes assessed as reduction in SNC80-induced [35S]GTPgammaS binding preincubated for 5 mins followed by SNC80 addition and measured after 1 hr; format: functional
[5] = molecular target: T3, Kappa-type opioid receptor; assay: Agonist activity at human kappa opioid receptor expressed in CHO cell membranes incubated for 1 hr by [35S]GTPgammaS binding assay; format: functional
[6] = Stability in human liver microsomes at 1 uM measured up to 60 mins by LC-MS/MS analysis; format: ADME, Microsome; settings: 1 h
Mu-type opioid receptor [7] = molecular target: T1, Mu-type opioid receptor; assay: biochemical
[8] = molecular target: T3, Kappa-type opioid receptor; assay: Agonist activity at human kappa opioid receptor expressed in CHO cell membranes assessed as stimulation of [35S]GTPgammaS binding incubated for 1 hr relative to […]; format: functional

## Oc1ccc2c3c1O[C@H]1c4ncc(-c5ccccc5)cc4C[C@@]4(OCCCc5ccccc5)[C@@H](C2)N(CC2CC2)CC[C@]314
Mu-type opioid receptor [1]
  Ki: 23.1 nM
[2]
  Ki: 19.3 nM
[3]
  Ki: 132 nM
[4]
  IC50: 0.93 nM
[5]; read-out: EC50
  EC50: > 3330 nM
[6]
  Stability: Stable
Mu-type opioid receptor [7]
  EC50: 1.27 nM

## Oc1ccc2c3c1O[C@H]1c4ncc(-c5ccc(F)cc5)cc4C[C@@]4(OCCCc5ccccc5)[C@@H](C2)N(CC2CC2)CC[C@]314
Mu-type opioid receptor [1]
  Ki: 2.33 nM
[2]
  Ki: 3.42 nM
[3]
  Ki: 6.69 nM
[4]
  IC50: 34.5 nM
[5]; read-out: EC50
  EC50: 56.6 nM
[6]
  Stability: Stable
Mu-type opioid receptor [7]
  EC50: 117 nM

## Oc1ccc2c3c1O[C@H]1c4ncc(-n5cccc5)cc4C[C@@]4(OCCCc5ccccc5)[C@@H](C2)N(CC2CC2)CC[C@]314
Mu-type opioid receptor [1]
  Ki: 14.7 nM
[2]
  Ki: < 0.169 nM
[3]
  Ki: 13.8 nM
[4]
  IC50: 0.98 nM
[5]; cho
  EC50: Not Active
[8]
  Emax: inactive
[6]
  Stability: Stable
Mu-type opioid receptor [7]
  EC50: 1.61 nM

## CC(=O)Nc1ccc(-c2cnc3c(c2)C[C@@]2(OCCCc4ccccc4)[C@H]4Cc5ccc(O)c6c5[C@@]2(CCN4CC2CC2)[C@H]3O6)cc1
Mu-type opioid receptor [1]
  Ki: 159 nM
[2]
  Ki: 394 nM
[3]
  Ki: 15.1 nM
[6]
  Stability: Stable

## Oc1ccc2c3c1O[C@H]1c4ncc(-c5ccncc5)cc4C[C@@]4(OCCCc5ccccc5)[C@@H](C2)N(CC2CC2)CC[C@]314
Mu-type opioid receptor [1]
  Ki: 47.1 nM
[2]
  Ki: 6.43 nM
[3]
  Ki: 15.8 nM
[4]
  IC50: 18.3 nM
[5]; cho
  EC50: Not Active
[8]
  Emax: inactive
[6]
  Stability: Stable
Mu-type opioid receptor [7]
  EC50: 56.3 nM

## Cc1cc(F)ccc1-c1cnc2c(c1)C[C@@]1(OCCCc3ccccc3)[C@H]3Cc4ccc(O)c5c4[C@@]1(CCN3CC1CC1)[C@H]2O5
[2]
  Ki: 3.78 nM
[3]
  Ki: 129 nM
[4]
  IC50: 28.2 nM
[5]; cho
  EC50: Not Active
[8]
  Emax: inactive
[6]
  Stability: Stable

## Oc1ccc2c3c1O[C@H]1c4ncc(-c5cccnc5)cc4C[C@@]4(OCCCc5ccccc5)[C@@H](C2)N(CC2CC2)CC[C@]314
Mu-type opioid receptor [1]
  Ki: 82.7 nM
[2]
  Ki: 30.6 nM
[3]
  Ki: 27.8 nM
[4]
  IC50: 0.67 nM
[5]; cho
  EC50: Not Active
[8]
  Emax: inactive
[6]
  Stability: Stable
Mu-type opioid receptor [7]
  EC50: > 3330 nM

## Cc1ccccc1-c1cnc2c(c1)C[C@@]1(OCCCc3ccccc3)[C@H]3Cc4ccc(O)c5c4[C@@]1(CCN3CC1CC1)[C@H]2O5
Mu-type opioid receptor [1]
  Ki: 235 nM
[2]
  Ki: 97.2 nM
[3]
  Ki: 152 nM
[4]
  IC50: 14.3 nM
[6]
  Stability: Stable
Mu-type opioid receptor [7]
  EC50: 5.53 nM

## Oc1ccc2c3c1O[C@H]1c4ncc(-c5ccccc5)cc4C[C@@]4(OCCCCc5ccccc5)[C@@H](C2)N(CC2CC2)CC[C@]314
Mu-type opioid receptor [1]
  Ki: 92.1 nM
[2]
  Ki: 14.6 nM
[3]
  Ki: 57.1 nM
[4]
  IC50: 66.6 nM
[6]
  Stability: Stable
Mu-type opioid receptor [7]
  EC50: 24.8 nM

## Oc1ccc2c3c1O[C@H]1c4ncc(-c5cnccn5)cc4C[C@@]4(OCCCc5ccccc5)[C@@H](C2)N(CC2CC2)CC[C@]314
Mu-type opioid receptor [1]
  Ki: 88.7 nM
[2]
  Ki: 40.1 nM
[3]
  Ki: 19.8 nM
[4]
  IC50: 1.27 nM
[5]; cho
  EC50: Not Active
[8]
  Emax: inactive
[6]
  Stability: Stable
Mu-type opioid receptor [7]
  EC50: > 3330 nM

## Oc1ccc2c3c1O[C@H]1c4ncc(-c5ccccc5)cc4C[C@@]4(OCCCC5CCOCC5)[C@@H](C2)N(CC2CC2)CC[C@]314
[2]
  Ki: 64.5 nM
[3]
  Ki: 24.8 nM
[4]
  IC50: < 0.17 nM
[6]
  Stability: Stable

## Cc1nocc1-c1cnc2c(c1)C[C@@]1(OCCCc3ccccc3)[C@H]3Cc4ccc(O)c5c4[C@@]1(CCN3CC1CC1)[C@H]2O5
Mu-type opioid receptor [1]
  Ki: 99.3 nM
[2]
  Ki: 64.5 nM
[3]
  Ki: 23.1 nM
[4]
  IC50: 0.68 nM
[6]
  Stability: Stable
Mu-type opioid receptor [7]
  EC50: 3.46 nM

## Oc1ccc2c3c1O[C@H]1c4ncc(-c5ccc(F)cc5F)cc4C[C@@]4(OCCCc5ccccc5)[C@@H](C2)N(CC2CC2)CC[C@]314
Mu-type opioid receptor [1]
  Ki: 171 nM
[2]
  Ki: 53.7 nM
[3]
  Ki: 35.9 nM
[4]
  IC50: 3.2 nM
[6]
  Stability: Stable
Mu-type opioid receptor [7]
  EC50: 130 nM

## CC(=O)Nc1cccc(-c2cnc3c(c2)C[C@@]2(OCCCc4ccccc4)[C@H]4Cc5ccc(O)c6c5[C@@]2(CCN4CC2CC2)[C@H]3O6)c1
Mu-type opioid receptor [1]
  Ki: 337 nM
[2]
  Ki: > 3330 nM
[3]
  Ki: 608 nM
[6]
  Stability: Stable

## Oc1ccc2c3c1O[C@H]1c4ncc(-c5ccccc5)cc4C[C@@]4(OCCCc5ccc(F)cc5)[C@@H](C2)N(CC2CC2)CC[C@]314
[2]
  Ki: 11 nM
[3]
  Ki: 60.2 nM
[4]
  IC50: 63.8 nM
[5]; cho
  EC50: Not Active
[8]
  Emax: inactive
[6]
  Stability: Stable

## Oc1ccc2c3c1O[C@H]1c4ncc(-c5ccc(Br)cc5)cc4C[C@@]4(OCCCc5ccccc5)[C@@H](C2)N(CC2CC2)CC[C@]314
[2]
  Ki: 20.9 nM
[3]
  Ki: 75.9 nM
[4]
  IC50: < 0.51 nM
[5]; read-out: EC50
  EC50: 5.52 nM
[6]
  Stability: Stable

## Oc1ccc2c3c1O[C@H]1c4ncc(-c5ccccc5C5CC5)cc4C[C@@]4(OCCCc5ccccc5)[C@@H](C2)N(CC2CC2)CC[C@]314
Mu-type opioid receptor [1]
  Ki: 135 nM
[2]
  Ki: 64.1 nM
[3]
  Ki: 175 nM
[4]
  IC50: 2.48 nM
[6]
  Stability: Stable
Mu-type opioid receptor [7]
  EC50: 141 nM

## Oc1ccc2c3c1O[C@H]1c4ncc(-c5ccccn5)cc4C[C@@]4(OCCCc5ccccc5)[C@@H](C2)N(CC2CC2)CC[C@]314
Mu-type opioid receptor [1]
  Ki: 105 nM
[2]
  Ki: 6.52 nM
[3]
  Ki: 19.2 nM
[4]
  IC50: 0.51 nM
[6]
  Stability: Stable
Mu-type opioid receptor [7]
  EC50: 526 nM

## Cc1ccc(-c2cnc3c(c2)C[C@@]2(OCCCc4ccccc4)[C@H]4Cc5ccc(O)c6c5[C@@]2(CCN4CC2CC2)[C@H]3O6)cc1
Mu-type opioid receptor [1]
  Ki: 191 nM
[2]
  Ki: 34.4 nM
[3]
  Ki: 102 nM
[4]
  IC50: 3.63 nM
[6]
  Stability: Stable
Mu-type opioid receptor [7]
  EC50: 2.31 nM

## Oc1ccc2c3c1O[C@H]1c4ncc(-c5ccc(F)c(F)c5)cc4C[C@@]4(OCCCc5ccccc5)[C@@H](C2)N(CC2CC2)CC[C@]314
Mu-type opioid receptor [1]
  Ki: 370 nM
[2]
  Ki: 7.52 nM
[3]
  Ki: 71.2 nM
[6]
  Stability: Stable

## Oc1cccc(-c2cnc3c(c2)C[C@@]2(OCCCc4ccccc4)[C@H]4Cc5ccc(O)c6c5[C@@]2(CCN4CC2CC2)[C@H]3O6)c1
Mu-type opioid receptor [1]
  Ki: 12.9 nM
[2]
  Ki: 8.37 nM
[3]
  Ki: 18.1 nM
[4]
  IC50: 1.28 nM
[6]
  Stability: Stable
Mu-type opioid receptor [7]
  EC50: 1.12 nM

## COc1ccc(-c2cnc3c(c2)C[C@@]2(OCCCc4ccccc4)[C@H]4Cc5ccc(O)c6c5[C@@]2(CCN4CC2CC2)[C@H]3O6)cc1
[2]
  Ki: 30.6 nM
[3]
  Ki: 140 nM
[4]
  IC50: 22 nM
[5]; read-out: EC50
  EC50: 2.02 nM
[6]
  Stability: Stable

## Cc1cccc(C)c1-c1cnc2c(c1)C[C@@]1(OCCCc3ccccc3)[C@H]3Cc4ccc(O)c5c4[C@@]1(CCN3CC1CC1)[C@H]2O5
Mu-type opioid receptor [1]
  Ki: 249 nM
[2]
  Ki: 93.4 nM
[3]
  Ki: 134 nM
[4]
  IC50: 51.6 nM
[6]
  Stability: Stable
Mu-type opioid receptor [7]
  EC50: 3.4 nM

## Oc1ccc2c3c1O[C@H]1c4ncc(-c5ccccc5)cc4C[C@@]4(OCCCC5CCCCC5)[C@@H](C2)N(CC2CC2)CC[C@]314
Mu-type opioid receptor [1]
  Ki: 95.3 nM
[2]
  Ki: 12.9 nM
[3]
  Ki: 57.9 nM
[4]
  IC50: 28.7 nM
[5]; read-out: EC50
  EC50: 34.5 nM
[6]
  Stability: Stable
Mu-type opioid receptor [7]
  EC50: 23.6 nM

## Oc1ccc2c3c1O[C@H]1c4ncc(-c5ccc(Cl)cc5)cc4C[C@@]4(OCCCc5ccccc5)[C@@H](C2)N(CC2CC2)CC[C@]314
[6]
  Stability: Stable
